The source of these data is patent publication US7504517B2, “Kv1.5 potassium channel inhibitors” (Wyeth, priority 2006, dated 2009).

The target of one data set is T1, Kv1.5 (Homo sapiens, UniProt P22460).
T1 construct: expressed in transfected cells; host or cells: HEK or LTK- cells
As to the kind of experiment: Kv1.5 Patch Clamp EP. Particulars: whole cell patch clamp; for IC50: HEK or LTK- cells, at least four concentrations, n=3. It is filed as cell-based. The procedure:
The external solution is standard Tyrodes solution. […] Inhibition was measured at the end of the 1 second pulses and expressed relative to controls. Initial Kv1.5 inhibition is estimated by single point determinations done at 1 μM.
(The patch-clamp technique gives a direct electrical read-out from membranes.)

In data set [1] the target is T2, HERG (Homo sapiens, UniProt Q12809). As to the kind of experiment: HERG Patch Clamp EP. The settings on record: for inhibition at 10 µM: human, HEK cells stably overexpressing HERG.
Method: (§1) HERG currents are recorded by the whole cell mode of patch clamp electrophysiology as described by Hamill et al.^3 HERG is stably over expressed in HEK cells. Microelectrodes are pulled from borosilicate glass (TW150) and heat polished (tip resistance, 1.5 to 3 megaohms). The external solution is standard Tyrodes solution. The internal (microelectrode) solution contained: 110 mM KCl, 5 mM K2ATP, 5 mM K4BAPTA, 1 mM MgCl2 and 10 mM HEPES, adjusted to pH 7.2 with KOH. […] Compounds are prepared as 10-20 mM DMSO stocks and diluted to appropriate test concentrations. […] Inhibition of HERG is measured at the peak of the tail currents and expressed relative to controls. Initial HERG activity is estimated by single point determinations run at 10 μM. Concentration response curves are generated for appropriate compounds utilizing at least four concentrations and an n=3. Curve fitting and IC50 estimating are done using Graphpad software (Ver. 4). • 1.
In another data set the test system is L-type calcium channels. The data set can be described thus: FLIPR L-Type Calcium Channel Assay. The format is cell-based, murine. The settings on record: HL-1 cells expressing endogenous L-type calcium channels; calcium influx after 20 mM KCl; read-out: L-type Ca^2+ IC50. In short, it runs like this: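 After a 15 min compound pre-incubation at 37 °C with 2.5 mM probenecid, L-type channels were opened by depolarising with 20 mM KCl (final). Fluorescence (488 nm excitation, 510–570 nm emission) was read for 5 min.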

Data set [2] concerns the target T2, HERG.
Method: as §1
Where [3] appears, read: 1.0 μM, single point, Kv1.5 stably over expressed in HEK or LTK- cells.

T2 sequence (Q12809 whole entry): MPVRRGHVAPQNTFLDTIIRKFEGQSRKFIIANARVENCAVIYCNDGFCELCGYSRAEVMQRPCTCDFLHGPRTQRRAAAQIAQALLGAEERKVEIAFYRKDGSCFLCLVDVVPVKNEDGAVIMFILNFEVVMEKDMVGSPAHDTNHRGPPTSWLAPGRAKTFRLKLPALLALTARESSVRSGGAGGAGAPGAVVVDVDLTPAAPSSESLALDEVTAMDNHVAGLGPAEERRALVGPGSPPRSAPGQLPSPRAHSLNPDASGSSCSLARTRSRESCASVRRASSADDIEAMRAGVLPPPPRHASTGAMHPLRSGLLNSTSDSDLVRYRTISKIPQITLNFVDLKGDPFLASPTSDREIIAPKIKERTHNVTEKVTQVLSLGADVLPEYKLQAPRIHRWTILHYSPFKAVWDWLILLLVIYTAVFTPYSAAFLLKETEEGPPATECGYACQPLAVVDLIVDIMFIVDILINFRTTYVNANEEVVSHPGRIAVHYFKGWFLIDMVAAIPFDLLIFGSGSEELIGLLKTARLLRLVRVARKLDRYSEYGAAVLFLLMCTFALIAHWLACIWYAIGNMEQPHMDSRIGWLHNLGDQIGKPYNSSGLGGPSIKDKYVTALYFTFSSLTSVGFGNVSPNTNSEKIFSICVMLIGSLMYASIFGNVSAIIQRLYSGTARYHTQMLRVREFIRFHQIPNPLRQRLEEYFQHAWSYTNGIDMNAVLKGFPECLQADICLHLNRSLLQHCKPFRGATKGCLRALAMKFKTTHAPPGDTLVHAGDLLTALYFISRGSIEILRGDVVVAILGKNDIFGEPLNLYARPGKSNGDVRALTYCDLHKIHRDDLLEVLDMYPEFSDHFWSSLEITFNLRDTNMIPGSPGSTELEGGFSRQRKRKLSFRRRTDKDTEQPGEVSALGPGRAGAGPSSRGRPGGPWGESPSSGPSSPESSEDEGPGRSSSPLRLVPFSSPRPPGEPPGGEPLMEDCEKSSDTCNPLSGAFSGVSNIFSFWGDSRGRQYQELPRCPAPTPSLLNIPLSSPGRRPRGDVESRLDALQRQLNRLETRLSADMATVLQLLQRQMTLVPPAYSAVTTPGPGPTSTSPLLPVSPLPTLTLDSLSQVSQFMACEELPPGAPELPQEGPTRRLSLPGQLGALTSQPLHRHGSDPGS
T1 sequence (P22460 whole entry): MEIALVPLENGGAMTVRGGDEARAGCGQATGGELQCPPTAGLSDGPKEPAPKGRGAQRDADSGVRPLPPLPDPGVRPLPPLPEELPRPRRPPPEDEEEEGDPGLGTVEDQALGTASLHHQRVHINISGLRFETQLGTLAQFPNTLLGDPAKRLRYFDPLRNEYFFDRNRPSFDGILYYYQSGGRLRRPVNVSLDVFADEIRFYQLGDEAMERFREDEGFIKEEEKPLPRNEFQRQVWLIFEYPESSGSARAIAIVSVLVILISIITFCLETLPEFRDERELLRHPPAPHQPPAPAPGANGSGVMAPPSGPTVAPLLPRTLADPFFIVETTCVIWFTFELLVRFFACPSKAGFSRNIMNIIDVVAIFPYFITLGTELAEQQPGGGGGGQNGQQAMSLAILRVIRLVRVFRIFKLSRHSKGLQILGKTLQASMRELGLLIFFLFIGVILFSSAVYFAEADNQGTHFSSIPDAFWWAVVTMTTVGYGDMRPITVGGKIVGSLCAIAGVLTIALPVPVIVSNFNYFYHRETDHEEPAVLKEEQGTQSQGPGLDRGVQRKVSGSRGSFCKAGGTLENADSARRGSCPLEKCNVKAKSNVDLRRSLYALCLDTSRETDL

What is called inhibition is the drop in the measured response relative to a control, in per cent. The IC50 is the concentration at which inhibition is half-maximal. With `COc1ccc(CCN2C(=O)N(NS(C)(=O)=O)C[C@@H]2c2ccc(OC(F)F)cc2)cc1` [Compound 171, N-{(4S)-4-[4-(difluoromethoxy)phenyl]-3-[2-(4-methoxyphenyl)ethyl]-2-oxoimidazolidin-1-yl}methanesulfonamide], the inhibition at 1 µM against Kv1.5 (setting [3]) worked out at 71%. For the same molecule, the IC50 was determined as 0.531 µM on Kv1.5, 5.8 µM on HERG [1] and 30 µM in the data set on L-type calcium channels. In addition, the inhibition at 10 µM against HERG [1] came out at 55%.
Turning to `COc1ccc(CCN2C(=O)N(NS(C)(=O)=O)CC2c2ccc(C)cc2)cc1` (stereo not shown) [Compound 20, 1-(Methylsulfonylamino)-3-[(4-methoxyphenyl)ethyl]-4-(4-methylphenyl)-2-imidazolidinone], the inhibition at 1 µM against Kv1.5 (setting [3]) was found to be 73%. The inhibition at 10 µM on HERG [1] was determined as 15%. The concentration for half-maximal inhibition (IC50) with L-type calcium channels amounted to 30 µM.
For `COc1ccc(CCN2C(=O)N(N(C)S(=O)(=O)Cc3ccccc3)CC2c2ccc(C)c(C)c2)cc1` (stereo not shown) [Compound 67, 1-[(N-methyl-N-benzylsulfonyl)amino]-3-[2-(4-methoxy-phenyl)ethyl]-4-(3,4-dimethylphenyl)-2-imidazolidinone] the same measures were 90%, 22% and 8 µM.
Taken in the same sequence, the figures for `COc1ccc(CCN2C(=O)N(NS(=O)(=O)CF)CC2c2ccc(C(C)(C)C)cc2)cc1` (stereo not shown) [Compound 36, 1-(Fluoromethylsulfonylamino)-3-[2-(4-methoxyphenyl)ethyl]-4-(4-tert-butyl-phenyl)-2-imidazolidinone] were 85%, 50% and 14 µM.
In the case of “1-(Methoxycarbonylamino)-3-[2-(4-methoxyphenyl)ethyl]-4-[4-(tert-butyl)phenyl]-2-imidazolidinone [Compound 80]”, the “Kv1.5% inhibition @ 1.0 μM” value on Kv1.5 (setting [3]) amounted to 77%. Further, at HERG [2], the “HERG % Inhib. @ 10 μM” value was 51%. For the same molecule, the concentration for half-maximal inhibition (IC50) in the data set with L-type calcium channels is 20 µM.
With `COc1ccc(CCN2C(=O)N(NS(C)(=O)=O)C[C@@H]2c2ccc(OC)cc2)cc1` [Compound 107, N-{(4S)-4-(4-methoxyphenyl)-3-[2-(4-methoxyphenyl)ethyl]-2-oxoimidazolidin-1-yl}methanesulfonamide], the inhibition at 1 µM against Kv1.5 (setting [3]) amounted to 41%. For the same molecule, the IC50 came out at 1.1 µM against Kv1.5, 54 µM against HERG [1] and 39 µM in the data set on L-type calcium channels.
`COc1ccc(CCN2C(=O)N(NS(C)(=O)=O)CC2c2ccc(OC)c(C)c2)cc1` (stereo not shown) [Compound 12, 1-(Methylsulfonylamino)-3-[2-(4-methoxyphenyl)ethyl]-4-[(3-methyl-4-methoxy)phenyl]-2-imidazolidinone] came in with an inhibition at 1 µM on Kv1.5 (setting [3]) of 82%. In addition, on HERG [1], the inhibition at 10 µM worked out at 19%. In addition, the 50% inhibitory concentration (IC50) in the data set on L-type calcium channels is 38 µM.
Molecule `COc1ccc(CCN2C(=O)N(NS(C)(=O)=O)C[C@H]2c2ccc(C(C)(C)C)cc2)cc1` [Compound 172, N-{(4R)-4-(4-tert-butylphenyl)-3-[2-(4-methoxyphenyl)ethyl]-2-oxoimidazolidin-1-yl}methanesulfonamide] returned an inhibition at 1 µM at Kv1.5 (setting [3]) of 55%. At HERG [1], this molecule returned an inhibition at 10 µM of 51%. Further, the IC50 in the data set with L-type calcium channels turned out to be 9.8 µM.
Taken in the same sequence, the figures for `COc1ccc(CCN2C(=O)N(NC(C)=O)CC2Cc2ccc(C(C)(C)C)cc2)cc1` (stereo not shown) [Compound 71, 1-(Acetylamino)-3-[2-(4-methoxyphenyl)ethyl]-4-[(4-tert-butyl)benzyl]-2-imidazolidinone] were 94%, 30% and 13 µM.
For `COc1ccc(CCN2C(=O)N(NS(C)(=O)=O)C[C@@H]2c2ccc(C(C)(C)C)cc2)cc1` [Compound 173, N-{(4S)-4-(4-tert-butylphenyl)-3-[2-(4-methoxyphenyl)ethyl]-2-oxoimidazolidin-1-yl}methanesulfonamide] the same measures were 94%, 48% and 14.6 µM.
Molecule `COc1ccc(CCCN2C(=O)N(N)CC2c2ccc(C(C)(C)C)cc2)cc1` (stereo not shown) [Compound 119, 1-amino-4-(4-tert-butylphenyl)-3-[3-(4-methoxyphenyl)propyl]imidazolidin-2-one] registered an inhibition at 1 µM on Kv1.5 (setting [3]) of 80%. The molecule also gave an inhibition at 10 µM at HERG [1] of 70%. In the data set on L-type calcium channels, the IC50 was 2 µM.
`COc1ccc(CCN2C(=O)N(NS(C)(=O)=O)CC2c2ccc(C)c(C)c2)cc1` (stereo not shown) [Compound 7, 1-(Methylsulfonylamino)-3-[2-(4-methoxyphenyl)ethyl]-4-(3,4-dimethylphenyl)-2-imidazolidinone] gave an inhibition at 1 µM on Kv1.5 (setting [3]) of 92%. For the same molecule, the IC50 against Kv1.5 came out at 0.232 µM; in the data set with L-type calcium channels it was 43 µM. Also, on HERG [1], the inhibition at 10 µM was found to be 16%.
